Where a name gives a salt, the structure may show the parent alone.
Tests used:
[1] = target: T1, human TLR2 (Pam3CSK4, TLR1/2 agonist) in HEK-Blue hTLR2 cells (Homo sapiens, UniProt O60603); experiment: HEK-Blue hTLR2 antagonism assay (SEAP reporter) with Pam3CSK4 as agonist; assay type: cell-based; conditions: 2 h compound pre-incubation, approx. 3×EC50 Pam3CSK4, 18 h, SEAP OD 655 nm, background subtracted
T1 construct: host or cells: HEK-Blue hTLR2 (HEK-293)
Procedure: (§1) Synthetic diacylated lipoprotein (Pam2CSK4, TLR2/6 agonist) and synthetic triacylated lipoprotein (Pam3CSK4, TLR1/2 agonist) were obtained from InvivoGen and were dissolved in endotoxin-free water to a concentration 1 mg/mL, vortexed until complete solubilization, and stored in aliquots at −20° C. Prior to addition to cells, an aliquot of the dissolved ligand was vortexed shortly and then was diluted in medium to 25 ng/mL Pam2CSK4 or 1000 ng/mL Pam3CSK4. The EC50 of the agonists for each assay run was determined by using 3-fold dilutions of each agonist from the following starting concentrations: 5 ng/mL for Pam2CSK4, and 200 ng/mL for Pam3CSK4.
(§2) Test compounds were solubilized fresh to 10-20 mM stocks in DMSO and sonicated for 5-10 minutes in a water bath sonicator. Serial dilutions were prepared in DMSO, and then diluted in medium. The final concentration of DMSO used in the assay was 1%.
(§3) HEK-Blue hTLR2 reporter cells (InvivoGen) are HEK-293 cells stably expressing both the human TLR2 gene and a secreted embryonic alkaline phosphatase (SEAP) reporter construct downstream of NFκB promotor sites. HEK-Blue hTLR2 reporters were cultured according to manufacturer's protocol using Dulbecco's Modified Eagle Medium (DMEM; Gibco) containing 1× GlutaMax (Gibco), 10% heat-inactivated Fetal Bovine Serum (Gibco), Pen-Strep (50 U/mL penicillin, 50 μg/mL streptomycin, Gibco), 100 μg/mL Normocin (InvivoGen), and the selective antibiotic, 1× HEK-Blue Selection (InvivoGen). Quanti-Blue reagent (InvivoGen) for detection and quantification of secreted alkaline phosphatase was dissolved in 100 mL of endotoxin-free water, warmed to 37° C. for 30 minutes and then filtered using a 0.2 μm membrane.
(§4) On day 1, 50 μL of each test compound dilution in duplicates or a vehicle control was added to each well of a 96-well plate followed by addition of 150 μL of HEK-Blue hTLR2 cell suspension (1×10^5 cells/well) and incubated at 37° C./5% CO2 for 2 h. Next, 50 μL of an approximate 3×EC50 concentration of each agonist (Pam2CSK4 or Pam3CSK4) was added to the wells containing test compounds or the vehicle control. The plates were then incubated at 37° C./5% CO2 for 18 h. For each assay run, non-treated HEK-Blue hTLR2 cells were treated with serial dilutions of agonists to determine EC50 values for the respective run.
(§5) On day 2, secreted alkaline phosphatase (SEAP) activity was detected in cell culture supernatants. In brief, 20 μL was collected from each well and transferred to a 96-well plate. Next, 200 μL of Quanti-Blue detection reagent was added to each well. Plates were incubated at room temperature for 15 min and SEAP activity was assessed by spectrophotometer OD reading at 655 nm. […] The activities of the compounds against Pam2CSK4 and Pam3CSK4 are presented as IC50 values for the response from cells treated with agonists with the background signal subtracted.

[2] = target: T2, human TLR2 (Pam2CSK4, TLR2/6 agonist) in HEK-Blue hTLR2 cells (Homo sapiens, UniProt O60603); experiment: HEK-Blue hTLR2 antagonism assay (SEAP reporter) with Pam2CSK4 as agonist; assay type: cell-based; conditions: 2 h compound pre-incubation, approx. 3×EC50 Pam2CSK4, 18 h, SEAP OD 655 nm, background subtracted
T2 construct: host or cells: HEK-Blue hTLR2 (HEK-293)
T2 sequence (O60603 19-784 limits assumed): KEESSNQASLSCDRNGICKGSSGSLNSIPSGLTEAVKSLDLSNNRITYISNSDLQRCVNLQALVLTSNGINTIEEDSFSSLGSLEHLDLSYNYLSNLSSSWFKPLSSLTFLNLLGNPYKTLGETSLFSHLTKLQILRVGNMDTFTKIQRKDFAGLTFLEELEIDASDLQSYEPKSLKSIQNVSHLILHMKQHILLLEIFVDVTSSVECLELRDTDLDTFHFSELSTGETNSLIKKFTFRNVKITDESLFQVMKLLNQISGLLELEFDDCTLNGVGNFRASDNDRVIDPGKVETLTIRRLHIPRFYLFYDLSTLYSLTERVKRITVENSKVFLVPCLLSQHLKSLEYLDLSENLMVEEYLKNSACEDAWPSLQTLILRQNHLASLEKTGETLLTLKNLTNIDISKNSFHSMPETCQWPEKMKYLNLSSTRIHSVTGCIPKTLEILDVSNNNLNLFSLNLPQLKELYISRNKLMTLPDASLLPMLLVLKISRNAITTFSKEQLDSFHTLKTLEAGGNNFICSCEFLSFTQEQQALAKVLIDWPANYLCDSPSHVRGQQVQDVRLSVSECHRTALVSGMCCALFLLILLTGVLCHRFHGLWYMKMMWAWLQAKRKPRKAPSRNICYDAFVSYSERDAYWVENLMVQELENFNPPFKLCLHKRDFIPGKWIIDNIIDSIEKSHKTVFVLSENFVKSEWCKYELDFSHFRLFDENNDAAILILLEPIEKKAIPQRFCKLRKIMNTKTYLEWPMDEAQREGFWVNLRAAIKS
Procedure: as §1, §2, §3, §4, §5

T1 sequence (O60603 19-784 limits assumed): as above

Row | Structure (SMILES) | IC50 [1] [µM] | IC50 [2] [µM]
1 | COc1cc(/C=C/c2cccc(C(F)(F)F)c2)cc(C=O)c1O [compound 2, (E)-2-hydroxy-3-methoxy-5-(3-(trifluoromethyl)styryl)benzaldehyde] | 1.4 | 5.3
2 | COc1cc(/C=C/c2ccc(-n3cccn3)cc2)cc(C=O)c1O [compound 56, (E)-5-(4-(1H-pyrazol-1-yl)styryl)-2-hydroxy-3-methoxybenzaldehyde] | 1.7 | 1.8
3 | Oc1c(F)cc(/C=C/c2ccc(N3CCCC3)cc2)cc1/C=N/Nc1ccccc1 [compound 79, 2-fluoro-6-((E)-(2-phenylhydrazono)methyl)-4-((E)-4-(pyrrolidin-1-yl)styryl)phenol] | 6 | 4.4
4 | COc1cc(/C=C/c2cc(F)cc(F)c2)cc(C=O)c1O [compound 5, (E)-5-(3,5-difluorostyryl)-2-hydroxy-3-methoxybenzaldehyde] | 3.2 | 4
5 | COc1cc(/C=C/c2ccc(N3CCOCC3)cc2)cc(C=O)c1O [compound 40, (E)-2-hydroxy-3-methoxy-5-(4-morpholinostyryl)benzaldehyde] | 2.5 | 2.3
6 | O=C1CN(/N=C/c2cc(/C=C/c3ccc(N4CCCC4)cc3)cc(F)c2O)C(=O)N1 [compound 88, 1-(((E)-3-fluoro-2-hydroxy-5-((E)-4-(pyrrolidin-1-yl)styryl)benzylidene)amino)imidazolidine-2,4-dione] | 7.9 | 11.2
7 | COc1cc(-c2cc3c(s2)CCN(C(=O)C2CC2)C3)cc(C(=O)/C=C/c2ccccc2)c1O [compound 74, (E)-1-(5-(5-(cyclopropanecarbonyl)-4,5,6,7-tetrahydrothieno[3,2-c]pyridin-2-yl)-2-hydroxy-3-methoxyphenyl)-3-phenylprop-2-en-1-one] | 7 | 6.3
8 | COc1cc(/C=C/c2ccc(C)nc2)cc(C=O)c1O [compound 26, (E)-2-hydroxy-3-methoxy-5-(2-(6-methylpyridin-3-yl)vinyl)benzaldehyde] | 9.3 | 7.4
9 | COc1cc(/C=C/c2ccc(OCC3CC3)cc2)cc(C=O)c1O [compound 65, (E)-5-(4-(cyclopropylmethoxy)styryl)-2-hydroxy-3-methoxybenzaldehyde] | 0.5 | 1.7
10 | CC(=O)N/N=C/c1cc(/C=C/c2ccc(N3CCCC3)cc2)cc(F)c1O [compound 77, N′-((E)-3-fluoro-2-hydroxy-5-((E)-4-(pyrrolidin-1-yl)styryl)benzylidene)acetohydrazide] | 1.1 | 1.4
11 | COc1cc(-c2cc3c(s2)CCN(C(=O)C2CC2)C3)cc(C=O)c1O [compound 14, 5-(5-(cyclopropanecarbonyl)-4,5,6,7-tetrahydrothieno[3,2-c]pyridin-2-yl)-2-hydroxy-3-methoxybenzaldehyde] | 4.2 | 5.7
12 | COc1cc(/C=C/c2ccccn2)cc(C=O)c1O [compound 23, (E)-2-hydroxy-3-methoxy-5-(2-(pyridin-2-yl)vinyl)benzaldehyde] | 11.5 | 11.8
13 | O=Cc1cc(/C=C/c2cccc(N3CCOCC3)c2)cc(F)c1O [compound 45, (E)-3-fluoro-2-hydroxy-5-(3-morpholinostyryl)benzaldehyde] | 6.7 | 5
14 | O=Cc1cc(/C=C/c2ccc3ncccc3c2)cc(F)c1O [compound 59, (E)-3-fluoro-2-hydroxy-5-(2-(quinolin-6-yl)vinyl)benzaldehyde] | 2.6 | 4.1
15 | O=Cc1cc(/C=C/c2ccc3c(c2)CCCO3)cc(F)c1O [compound 68, (E)-5-(2-(chroman-6-yl)vinyl)-3-fluoro-2-hydroxybenzaldehyde] | 1.3 | 1.6
16 | COc1cc(/C=C\c2ccc(N3CCCC3)cc2)cc(C=O)c1O [compound 51, (Z)-2-hydroxy-3-methoxy-5-(4-(pyrrolidin-1-yl)styryl)benzaldehyde] | 70.1 | 71.3

Row | Structure (SMILES) | IC50 [1] [µM] | IC50 [2] [µM]
17 | CCN1CCN(c2ccc(/C=C/c3cc(O)c(C=O)c(F)c3)cc2)CC1 [compound 72, (E)-4-(4-(4-ethylpiperazin-1-yl)styryl)-2-fluoro-6-hydroxybenzaldehyde] | 11.2 | 8.2
18 | CCN(CC)c1ccc(/C=C/c2cc(C=O)c(O)c(OC)c2)cc1 [compound 63, (E)-5-(4-(diethylamino)styryl)-2-hydroxy-3-methoxybenzaldehyde] | 0.6 | 1.5
19 | CCN(CC)c1ccc(/C=C/c2cc(F)c(O)c(C=O)c2)cc1 [compound 64, (E)-5-(4-(diethylamino)styryl)-3-fluoro-2-hydroxybenzaldehyde] | 0.5 | 1.1
20 | O=Cc1c(O)cc(/C=C/c2ccc(N3CCCC3)cc2)cc1F [compound 53, (E)-2-fluoro-6-hydroxy-4-(4-(pyrrolidin-1-yl)styryl)benzaldehyde] | 1.5 | 1.3
21 | C[N+]1([O-])CCN(/N=C/c2cc(/C=C/c3ccc(N4CCCC4)cc3)cc(F)c2O)CC1 [compound 85, 4-(((E)-3-fluoro-2-hydroxy-5-((E)-4-(pyrrolidin-1-yl)styryl)benzylidene)amino)-1-methylpiperazine 1-oxide] | 1.9 | 4.5
22 | COc1cc(/C=C/c2ccc(N3CCCC3)cc2)cc(O)c1C=O [compound 52, (E)-2-hydroxy-6-methoxy-4-(4-(pyrrolidin-1-yl)styryl)benzaldehyde] | > 100 | > 100
23 | COc1cc(-c2cc3c(s2)CCNC3)cc(C=O)c1O [compound 13, 2-hydroxy-3-methoxy-5-(4,5,6,7-tetrahydrothieno[3,2-c]pyridin-2-yl)benzaldehyde hydrochloride] | 3.8 | 4.5
24 | COc1ccc(/C=C/c2cc(F)c(O)c(C=O)c2)cc1 [compound 10, (E)-3-fluoro-2-hydroxy-5-(4-methoxystyryl)benzaldehyde] | 3.8 | 4.6
25 | CC(C)(C)OC(=O)N1CCCc2cc(/C=C/c3cc(F)c(O)c(C=O)c3)ccc21 [compound 61, tert-butyl (E)-6-(3-fluoro-5-formyl-4-hydroxystyryl)-3,4-dihydroquinoline-1(2H)-carboxylate] | 0.4 | 1
26 | COc1cc(/C=C/C(=O)N2CCOCC2)cc(C=O)c1O [compound 35, (E)-2-hydroxy-3-methoxy-5-(3-morpholino-3-oxoprop-1-en-1-yl)benzaldehyde] | 62.6 | 68.5
27 | COc1cc(/C=C/c2ccc3c(c2)CCCO3)cc(C=O)c1O [compound 67, (E)-5-(2-(chroman-6-yl)vinyl)-2-hydroxy-3-methoxybenzaldehyde] | 1.2 | 1.7
28 | O=Cc1cc(/C=C/c2ccc(N3CCCC3)cc2)cc(F)c1O [Example 49b, (E)-3-fluoro-2-hydroxy-5-(4-(pyrrolidin-1-yl)styryl)benzaldehyde] | 0.8 | 0.8
29 | OCc1cc(/C=C/c2ccc(N3CCCC3)cc2)cc(F)c1O [compound 90, (E)-2-fluoro-6-(hydroxymethyl)-4-(4-(pyrrolidin-1-yl)styryl)phenol] | 8.5 | 5.4
30 | O=Cc1cc(/C=C/c2ccccn2)ccc1O [compound 24, (E)-2-hydroxy-5-(2-(pyridin-2-yl)vinyl)benzaldehyde] | > 100 | > 100
31 | CCN1CCN(/N=C/c2cc(/C=C/c3ccc(N4CCCC4)cc3)cc(F)c2O)CC1 [compound 93, 2-((E)-((4-ethylpiperazin-1-yl)imino)methyl)-6-fluoro-4-((E)-4-(pyrrolidin-1-yl)styryl)phenol] | 3.2 | 24.5
32 | O=Cc1cc(/C=C/c2ccc(N3CCOCC3)cc2)cc(F)c1O [compound 42, (E)-3-fluoro-2-hydroxy-5-(4-morpholinostyryl)benzaldehyde] | 4.5 | 3.4

From US11345713B2, “Compounds as modulators of TLR2 signaling” (Neuropore Therapies, inc., priority 2018, dated 2022)
